The text below walks through data of PubChem BioAssay AID298 (DTP/NCI, 2004).

The subject of the assay is MX-1 breast xenograft, intrarenal, nude mice, tumor weight. Kind of assay: NCI In Vivo Anticancer Drug Screen. Data for tumor model Human Mammary Carcinoma MX-1 Xenograft (intrarenal inoculation) in NU/NU BALB/C (nude) mice. The conditions noted are these: endpoint: mean tumor weight change, higher = larger tumour. In short, it runs like this: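 Efficacy in vivo: tumor measurement or survival of treated animals divided by that of vehicle-dosed controls.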
A general note: In xenograft studies the graft and the host belong to different species.

[1] abbreviates: dose: 75.0 mg/kg/injection, schedule: Q04DX003 (sc), vehicle: saline with Tween-80.

Structures are written as SMILES. Several values for one entry are separate records, joined by “and”; a condition that tells them apart may be missing. Equal values may be shown once. Records with an inconclusive call do not appear.

As to `COc1cc(C(C)(C)C)cc(OC)c1C(O)(c1c(OC)cc(C(C)(C)C)cc1OC)c1c(OC)cc(C(C)(C)C)cc1OC`, the T/C is, setting by setting: (dose: 200.0 mg/kg/injection, schedule: Q04DX003 (sc), vehicle: saline with Tween-80) 93 % of control; (dose: 400.0 mg/kg/injection, schedule: Q04DX003 (sc), vehicle: saline with Tween-80) 88 % of control; (dose: 800.0 mg/kg/injection, schedule: Q04DX003 (sc), vehicle: saline with Tween-80) 96 % of control; (dose: 1600.0 mg/kg/injection, schedule: Q04DX003 (sc), vehicle: saline with Tween-80) 100 % of control.
`O=C(NNC(=O)c1cccc(C(=O)NNC(=O)c2ccc(Cl)c(Cl)c2)n1)c1ccc(Cl)c(Cl)c1`: the T/C runs as follows: (dose: 50.0 mg/kg/injection, schedule: Q04DX003 (ip), vehicle: saline with Tween-80) 106 % of control; (dose: 100.0 mg/kg/injection, schedule: Q04DX003 (ip), vehicle: saline with Tween-80) 78 % of control; (dose: 150.0 mg/kg/injection, schedule: Q04DX003 (ip), vehicle: saline with Tween-80) 73 % of control; (dose: 200.0 mg/kg/injection, schedule: Q04DX003 (ip), vehicle: saline with Tween-80) 98 % of control; (dose: 300.0 mg/kg/injection, schedule: Q04DX003 (ip), vehicle: saline with Tween-80) 64 % of control; (dose: 400.0 mg/kg/injection, schedule: Q04DX003 (ip), vehicle: saline with Tween-80) 102 % of control. Besides, the T/C (dose: 600.0 mg/kg/injection, schedule: Q04DX003 (ip), vehicle: saline with Tween-80) was 65 % of control.
Regarding `CNCCN=c1ccc2c3c1c(O)c1c(O)ccc(=O)c1c3[nH]n2CCNCCO`, the T/C reads like this: (dose: 1.56 mg/kg/injection, schedule: Q04DX003 (ip), vehicle: water) 7 % of control and 17 % of control and 26 % of control; (dose: 3.12 mg/kg/injection, schedule: Q04DX003 (ip), vehicle: water) 1 % of control and 5 % of control and 8 % of control.
As to `CC(=O)CC(=O)CCC(=O)O`, the T/C runs as follows: (dose: 300.0 mg/kg/injection, schedule: Q04DX003 (sc), vehicle: saline) 88 % of control; (dose: 1200.0 mg/kg/injection, schedule: Q04DX003 (sc), vehicle: saline) 78 % of control.
In the case of `CC[C@](C)(O)C(=O)O[C@H]1C(=O)O[C@@H]2C[C@H]3C(C)=CC(=O)[C@@H](O)[C@]3(C)[C@H]3[C@@]4(O)OC[C@]32[C@@H]1[C@@H](C)[C@H]4O`, the T/C runs as follows: (dose: 0.25 mg/kg/injection, schedule: Q01DX010 (sc), vehicle: Klucel (hydroxypropylcellulose) (HPC)) 23 % of control; (dose: 0.5 mg/kg/injection, schedule: Q01DX010 (sc), vehicle: Klucel (hydroxypropylcellulose) (HPC)) 2 % of control.
As to `O=C1NC(=O)NC(C(=O)O)N1`, the T/C was 96 % of control (dose: 200.0 mg/kg/injection, schedule: Q04DX003 (sc), vehicle: Klucel (hydroxypropylcellulose) (HPC)) and 108 % of control (dose: 400.0 mg/kg/injection, schedule: Q04DX003 (sc), vehicle: Klucel (hydroxypropylcellulose) (HPC)).
`O=[N+]([O-])c1nccn1CC(O)CO` (stereo not drawn): the T/C was 96 % of control (dose: 300.0 mg/kg/injection, schedule: Q04DX004 (sc), vehicle: saline); 91 % of control (dose: 600.0 mg/kg/injection, schedule: Q04DX004 (sc), vehicle: saline); 93 % of control (dose: 2400.0 mg/kg/injection, schedule: Q04DX004 (sc), vehicle: saline).
Regarding `CC(=O)Oc1c[nH]c(=O)[nH]c1=O`, the T/C is 116 % of control (dose: 300.0 mg/kg/injection, schedule: Q04DX003 (sc), vehicle: distilled water + Tween-80); 118 % of control (dose: 600.0 mg/kg/injection, schedule: Q04DX003 (sc), vehicle: distilled water + Tween-80); 102 % of control (dose: 1200.0 mg/kg/injection, schedule: Q04DX003 (sc), vehicle: distilled water + Tween-80); 83 % of control (dose: 2400.0 mg/kg/injection, schedule: Q04DX003 (sc), vehicle: distilled water + Tween-80).
`Cn1c(-c2ccc(/C=N\N3CCN(/N=C/c4ccc(-c5c[n+]6ccsc6n5C)cc4)CC3)cc2)c[n+]2ccsc12`: the T/C (dose: 3.0 mg/kg/injection, schedule: Q04DX003 (ip), vehicle: saline with Tween-80) was 79 % of control.
On to `CSc1cc(=O)n2c3ccccc3c3ccnc1c32`, for which the T/C is, setting by setting: (dose: 80.0 mg/kg/injection, schedule: Q04DX003 (sc), vehicle: saline with Tween-80) 89 % of control; (dose: 160.0 mg/kg/injection, schedule: Q04DX003 (sc), vehicle: saline with Tween-80) 26 % of control; (dose: 320.0 mg/kg/injection, schedule: Q04DX003 (sc), vehicle: saline with Tween-80) 40 % of control.
As for `CN(C)c1nc(N(C)C)nc(N(C)C)n1`, the T/C was 102 % of control (dose: 12.5 mg/kg/injection, schedule: Q01DX010 (sc), vehicle: saline with Tween-80); 84 % of control (dose: 15.0 mg/kg/injection, schedule: Q01DX010 (sc), vehicle: saline with Tween-80); 36 % of control (dose: 25.0 mg/kg/injection, schedule: Q01DX010 (ip), vehicle: Klucel (hydroxypropylcellulose) (HPC)); 56 % of control (dose: 25.0 mg/kg/injection, schedule: Q01DX010 (sc), vehicle: saline with Tween-80); 3 % of control (dose: 30.0 mg/kg/injection, schedule: Q01DX010 (sc), vehicle: saline with Tween-80); 7 % of control (dose: 50.0 mg/kg/injection, schedule: Q01DX010 (sc), vehicle: saline with Tween-80). Besides, the T/C is -30 % of control (dose: 60.0 mg/kg/injection, schedule: Q01DX010 (sc), vehicle: saline with Tween-80); 37 % of control under setting [1]; -100 % of control (dose: 100.0 mg/kg/injection, schedule: Q01DX010 (ip), vehicle: Klucel (hydroxypropylcellulose) (HPC)); 9 % of control (dose: 100.0 mg/kg/injection, schedule: Q01DX010 (sc), vehicle: saline with Tween-80); -90 % of control (dose: 120.0 mg/kg/injection, schedule: Q01DX010 (sc), vehicle: saline with Tween-80); 16 % of control (dose: 150.0 mg/kg/injection, schedule: Q04DX003 (sc), vehicle: saline with Tween-80). Besides, the T/C was -100 % of control (dose: 200.0 mg/kg/injection, schedule: Q01DX010 (ip), vehicle: Klucel (hydroxypropylcellulose) (HPC)); -5 % of control (dose: 200.0 mg/kg/injection, schedule: Q01DX010 (sc), vehicle: saline with Tween-80); -60 % of control (dose: 300.0 mg/kg/injection, schedule: Q04DX003 (sc), vehicle: saline with Tween-80).
As to `Cc1ccccc1N=C(c1ccccc1)C1C(=O)c2ccccc2C1=O`, the T/C by setting is: (dose: 150.0 mg/kg/injection, schedule: Q04DX003 (ip), vehicle: DMSO) 117 % of control; (dose: 300.0 mg/kg/injection, schedule: Q04DX003 (ip), vehicle: DMSO) 102 % of control; (dose: 600.0 mg/kg/injection, schedule: Q04DX003 (ip), vehicle: DMSO) 103 % of control; (dose: 1200.0 mg/kg/injection, schedule: Q04DX003 (ip), vehicle: DMSO) 65 % of control.
For `CN(Cc1cnc2nc(N)nc(N)c2n1)c1ccc(C(=O)NC(CCC(=O)OC(C)(C)C)C(=O)O)cc1` (stereo not drawn), the T/C by setting is: (dose: 25.0 mg/kg/injection, schedule: Q03HX015 (ip), vehicle: sodium bicarbonate) 62 % of control; (dose: 50.0 mg/kg/injection, schedule: Q03HX015 (ip), vehicle: sodium bicarbonate) 110 % of control; (dose: 100.0 mg/kg/injection, schedule: Q03HX015 (ip), vehicle: sodium bicarbonate) 54 % of control; (dose: 200.0 mg/kg/injection, schedule: Q03HX015 (ip), vehicle: sodium bicarbonate) 116 % of control.
Regarding `CN(C)N=Nc1ccc(C(=O)O)cc1`, the T/C runs as follows: (dose: 100.0 mg/kg/injection, schedule: Q04DX003 (ip), vehicle: saline) 30 % of control; (dose: 200.0 mg/kg/injection, schedule: Q04DX003 (ip), vehicle: saline) 2 % of control; (dose: 400.0 mg/kg/injection, schedule: Q04DX003 (ip), vehicle: saline) -60 % of control.
Consider `CCc1nc(N)nc(N)c1-c1ccc(Cl)c([N+](=O)[O-])c1`, for which the T/C is, setting by setting: (dose: 18.75 mg/kg/injection, schedule: Q04DX003 (sc), vehicle: saline with Tween-80) 99 % of control; (dose: 37.5 mg/kg/injection, schedule: Q04DX003 (sc), vehicle: saline with Tween-80) 71 % of control; under setting [1], 82 % of control.
On to `Cc1cc(N/N=C/c2ccccn2)nc2ccccc12`, for which the T/C was 74 % of control (dose: 300.0 mg/kg/injection, schedule: Q04DX003 (sc), vehicle: Klucel (hydroxypropylcellulose) (HPC)); 73 % of control (dose: 600.0 mg/kg/injection, schedule: Q04DX003 (sc), vehicle: Klucel (hydroxypropylcellulose) (HPC)); 43 % of control (dose: 1200.0 mg/kg/injection, schedule: Q04DX003 (sc), vehicle: Klucel (hydroxypropylcellulose) (HPC)); 68 % of control (dose: 2400.0 mg/kg/injection, schedule: Q04DX003 (sc), vehicle: Klucel (hydroxypropylcellulose) (HPC)).
